# Experimental data taken from ChEMBL document CHEMBL2028040, “Malaria Box”.
# Columns and labels:
# Leishmania infantum = assay: MMV: Inhibition of Leishmania infantum (MHOM/MA/BE/67) in vitro.; type: functional, organism-based
# [1] = MMV: Cytotoxicity against human fibroblasts (MRC-5) cells.; conditions: MRC-5 cells (human fibroblasts)
# Trypanosoma cruzi = assay: MMV: Inhibition of Trypanosoma cruzi (Tulahuen C4 LacZ) (Chagas in vitro).; type: functional, organism-based
# Plasmodium falciparum [2] = assay: MMV: Inhibition of Plasmodium falciparum 3D7 (EC50).; type: functional, organism-based
# [3] = tested on: Trypanosoma brucei rhodesiense; assay: MMV: Inhibition of Trypanosoma brucei rhodesiense (STIB 900) (HAT in vitro).; type: functional, organism-based
# [4] = tested on: Trypanosoma brucei brucei; assay: MMV: Inhibition of Trypanosoma brucei brucei (Squib 427) (HAT in vitro).; type: functional, organism-based
# Plasmodium falciparum [5] = assay: MMV: Inhibition of Plasmodium falciparum K1 (EC50).; type: functional, organism-based
# Plasmodium falciparum [6] = assay: MMV: Inhibition of Plasmodium falciparum 3D7 at 5uM compound concentration.; type: functional
SMILES,IC50 (Leishmania infantum),IC50 [1],IC50 (Trypanosoma cruzi),EC50 (Plasmodium falciparum [2]),IC50 [3],IC50 [4],EC50 (Plasmodium falciparum [5]),inhibition at 5 µM (Plasmodium falciparum [6])
Cc1ccc(F)cc1NC(=O)c1cc(Cl)ccc1Nc1ccccc1,> 32 µM,> 32 µM,> 32 µM,0.539 µM,> 32 µM,> 32 µM,0.507 µM,99%
COc1ccc(C2Sc3ccccc3N=C3C2=C(O)c2ccccc23)cc1 (stereo unspecified),4.76 µM,> 32 µM,4.51 µM,0.845 µM,3.54 µM,4 µM,1.93 µM,96%
CCCOCc1cc(CN2CCN(c3cccc(Cl)c3)CC2)c(O)c2ncccc12,1.59 µM,1.67 µM,0.954 µM,0.407 µM,0.972 µM,1.02 µM,0.362 µM,97%
CC(=O)Nc1nnc(SCc2c(C)cc(C(C)(C)C)cc2C)s1,> 32 µM,> 32 µM,> 32 µM,0.871 µM,> 32 µM,> 32 µM,0.843 µM,96%
CC(C)(C)c1ccc2c(c1)CN(Cc1ccc(Cl)cc1)CO2,> 32 µM,> 32 µM,17.7 µM,0.362 µM,5.04 µM,10.1 µM,0.107 µM,98%
N=c1n(CCN2CCCCC2)c2ccccc2n1CC(O)c1cccc(Br)c1 (stereo unspecified),4 µM,27.6 µM,4.17 µM,0.893 µM,1.01 µM,2.77 µM,1.4 µM,98%
Cc1ccc(CSCc2ccc(C(=O)NC3CC3)o2)cc1,> 32 µM,> 32 µM,> 32 µM,0.635 µM,> 32 µM,> 32 µM,1.13 µM,97%
Cc1ccc(C2CC(C(F)(F)F)n3nc(C(=O)N4CCN(C(c5ccccc5)c5ccccc5)CC4)cc3N2)cc1 (stereo unspecified),16.2 µM,> 32 µM,16.6 µM,0.454 µM,4.11 µM,16.5 µM,1.61 µM,98%
CC1CCN(Cc2c(O)ccc3cc(-c4nc5ccccc5s4)c(=O)oc23)CC1,19 µM,23.2 µM,18 µM,1.13 µM,< 0.125 µM,18.4 µM,0.47 µM,91%
COc1ccc(C=C2SC(=N)N(c3ccccc3OC)C2=O)cc1,16.1 µM,4.49 µM,11.6 µM,0.168 µM,13.9 µM,13.7 µM,0.687 µM,97%
O=c1cc(NC2CCN(CCCc3ccccc3)CC2)c2cc(Cl)ccc2o1,10.1 µM,> 32 µM,15.6 µM,0.846 µM,4.09 µM,15 µM,0.532 µM,97%
Cc1ccc(-c2cc3nc4c(c(O)n3n2)CCCC4)cc1,> 32 µM,> 32 µM,> 32 µM,0.396 µM,3.73 µM,15.5 µM,1.12 µM,73%
COc1ccccc1NC1=C(N2CCCCC2)C(=O)c2ccccc2C1=O,3.01 µM,9.88 µM,< 0.125 µM,0.0053 µM,0.315 µM,1.01 µM,0.01 µM,98%
O=C(CCl)NCCOc1ccc(Cl)cc1Cl,10.2 µM,16.2 µM,19.1 µM,0.555 µM,6.83 µM,11.6 µM,1 µM,94%
CCCCNCC(O)(c1ccc(Cl)cc1)c1ccc(Cl)cc1,13.6 µM,> 32 µM,14.3 µM,0.843 µM,3.86 µM,3.27 µM,0.525 µM,97%
COc1ccccc1CNC(=O)CCn1c(=O)[nH]c2ccsc2c1=O,> 32 µM,> 32 µM,> 32 µM,0.14 µM,> 32 µM,> 32 µM,0.15 µM,67%
CCC1(C)CC(CCNCc2ccccc2O)(c2ccc(C)cc2)CCO1 (stereo unspecified),4.32 µM,16.1 µM,15.7 µM,0.142 µM,1.01 µM,3.05 µM,0.0372 µM,97%
O=C(NC(c1ccccc1)c1ccc2cccnc2c1O)c1ccccc1 (stereo unspecified),16.6 µM,11.8 µM,< 0.125 µM,1.17 µM,< 0.125 µM,< 0.125 µM,1.45 µM,95%
CCCCc1c(CCC)c(=N)c2ccccc2n1C,6.35 µM,19.3 µM,0.375 µM,0.716 µM,3.92 µM,4 µM,1.58 µM,77%

SMILES,IC50 (Leishmania infantum),IC50 [1],IC50 (Trypanosoma cruzi),EC50 (Plasmodium falciparum [2]),IC50 [3],IC50 [4],EC50 (Plasmodium falciparum [5]),inhibition at 5 µM (Plasmodium falciparum [6])
CSC1=NC(=Nc2c(C)cccc2C)C2(CCC(C(C)(C)C)CC2)N1c1ccc(Cl)cc1 (stereo unspecified),16.2 µM,> 32 µM,15.4 µM,0.135 µM,15.3 µM,16.1 µM,0.172 µM,96%
CCCCCCc1cc(O)c2c3c(c(=O)oc2c1)CCC(C)C3 (stereo unspecified),> 32 µM,> 32 µM,> 32 µM,0.534 µM,4.21 µM,4.18 µM,0.467 µM,96%
Cc1cc(NC(=O)C2c3ccccc3C(=O)N(CC(C)C)C2c2cccs2)no1 (stereo unspecified),> 32 µM,30.1 µM,15.1 µM,0.0328 µM,9.83 µM,> 32 µM,0.0391 µM,100%
CCN(CC)S(=O)(=O)c1ccc(-c2csc(Nc3ccc(C)c(C)c3)n2)cc1,16.2 µM,> 32 µM,> 32 µM,0.641 µM,> 32 µM,> 32 µM,1.04 µM,97%
CCOC(=O)c1ccc2nc(-c3ccccc3)cc(O)c2c1,16.2 µM,7.58 µM,1.53 µM,0.118 µM,> 32 µM,> 32 µM,0.6 µM,96%
FC(F)(F)c1cccc(Nc2nc3ccccc3nc2Nc2cccc(C(F)(F)F)c2)c1,4.06 µM,9.31 µM,3.75 µM,0.313 µM,4 µM,3.78 µM,0.501 µM,99%
CC1CC2=C(CC1CNCCCN(C)C)C(C)(C)CCC2 (stereo unspecified),3.01 µM,4.15 µM,1.08 µM,1.01 µM,< 0.125 µM,< 0.125 µM,1 µM,98%
Cc1ccccc1OCCSc1nc2ccc(NC(=O)c3cccs3)cc2s1,17.3 µM,> 32 µM,4.65 µM,0.697 µM,2.77 µM,3.94 µM,1.04 µM,96%
CN(C)CCCNc1c2ccccc2nc2ccccc12,1.01 µM,2.86 µM,1 µM,0.235 µM,< 0.125 µM,< 0.125 µM,1.56 µM,95%
CCCCCCc1cc2cc(-c3nc4ccccc4[nH]3)c(=Nc3ccccc3C)oc2cc1O,> 32 µM,> 32 µM,> 32 µM,0.551 µM,12.8 µM,17 µM,0.149 µM,96%
CC(NCc1ccccc1)c1cc(Cl)ccc1O (stereo unspecified),> 32 µM,> 32 µM,> 32 µM,0.603 µM,16 µM,> 32 µM,0.243 µM,95%
CCC(O)c1ccc(Br)cc1NC(=O)c1cccc(Cl)c1 (stereo unspecified),> 32 µM,> 32 µM,> 32 µM,0.64 µM,4.54 µM,15.3 µM,0.419 µM,97%
COc1ccc(-c2cc(=O)oc3c4c(ccc23)OCN(Cc2ccc(F)cc2)C4)cc1,5.38 µM,> 32 µM,13.2 µM,0.735 µM,11 µM,15.8 µM,0.294 µM,96%
COc1ccc(CNC2CCN(c3ccc(NC(=O)c4cccc(Cl)c4)cc3)CC2)cc1OC,6.35 µM,> 32 µM,15.4 µM,0.663 µM,3.8 µM,3.09 µM,1.61 µM,97%
CCCc1cc(O)c2c3c(c(=O)oc2c1)CN(C)CC3,> 32 µM,> 32 µM,> 32 µM,0.146 µM,> 32 µM,> 32 µM,0.0807 µM,97%
COc1ccc(C=C2SC(Nc3ccc(F)cc3)=NC2=O)c(OC)c1,> 32 µM,> 32 µM,> 32 µM,0.591 µM,> 32 µM,> 32 µM,0.825 µM,92%
CCCCCCn1c(=N)n(CC(O)COc2cccc(C)c2)c2ccccc21 (stereo unspecified),2.54 µM,4 µM,3.78 µM,1.14 µM,0.942 µM,1.01 µM,0.7 µM,98%
Clc1ccc2c(N3CCCC3)ccnc2c1,> 32 µM,> 32 µM,> 32 µM,0.944 µM,14.4 µM,16 µM,1.29 µM,97%
